Target: T1, NK1 receptor (Homo sapiens, UniProt P25103)
T1 construct: endogenous in cells; host or cells: IM9 cells (intact)
Test: [3H] SP binding assay in IM9 Cell Line (Substance P antagonism)
Details: intact IM9 cells, 60 min, room temperature, compound at 1 μM
Experimental: Assessment of biological activity (NK1 antagonism) of compounds of this invention was performed by means of the following binding and functional assays:
[3H] SP binding assay in IM9 Cell Line
Binding assay was performed with intact cells as described by Payan et al. (J. Immunology 133, 3260 (1984)). Cells were washed with buffer A, (pH 7.5), containing (in mM) Tris-HCl 50, and NaCl 150, plus 0.02% BSA, and then resuspended in assay buffer (buffer A supplemented with protease inhibitors) at a concentration of 1×10^7 cells/ml. Cells were incubated with [3H]SP in a final volume of 0.5 ml for 60 min. at room temperature. Nonspecific binding was determined in the presence of […] nonradioactive SP. The assay mixture was set up in microfuge tubes that had been presoaked in a 0.5% BSA solution for at least 3 hours. Bound and free [^3 H]SP were separated by pelleting the cells in a microfuge (6 min.; 12000 g); the supernatant was then removed by aspiration. For competition binding experiments, IM9 cells were incubated in triplicate with […] [^3 H]SP (the approximate Kd value, as determined in saturation binding experiments); competing ligands were typically added in six concentrations (1:10 dilutions in assay buffer) to give full competition curves.

T1 sequence (P25103 whole entry): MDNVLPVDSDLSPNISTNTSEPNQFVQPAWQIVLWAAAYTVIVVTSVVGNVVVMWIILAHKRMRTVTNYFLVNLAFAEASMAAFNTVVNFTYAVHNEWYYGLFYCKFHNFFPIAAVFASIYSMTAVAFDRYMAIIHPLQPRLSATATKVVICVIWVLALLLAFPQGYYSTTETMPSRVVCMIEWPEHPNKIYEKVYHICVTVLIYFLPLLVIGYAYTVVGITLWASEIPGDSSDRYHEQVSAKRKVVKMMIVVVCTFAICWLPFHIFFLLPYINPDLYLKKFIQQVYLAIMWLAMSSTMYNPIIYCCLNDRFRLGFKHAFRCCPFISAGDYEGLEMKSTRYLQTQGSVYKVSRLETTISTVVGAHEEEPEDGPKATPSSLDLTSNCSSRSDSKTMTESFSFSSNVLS

SMILES	inhibition at 1 µM	% of binding inhibition at 1 μM (1 µM)
CN(Cc1ccccc1)C(=O)[C@H](Cc1ccccc1)NC(=O)C1CCCCC1NC(=O)c1c[nH]c2ccccc12 (stereo partly drawn) [Example 1 fast, N-methyl-N-benzylamide of N^α -{[N(indol-3-yl-carbonyl)(R,R)-trans-2-amino]cyclohexanoyl}-L-phenylalanine and N-methyl-N-benzylamide of N^α -{[N(indol-3-yl-carbonyl)(S,S)-trans-2-amino]cyclohexanoyl}-L-phenylalamine, reference compound]	96%	
CN(Cc1ccccc1)C(=O)[C@H](Cc1ccccc1)NC(=O)C1CCCCC1NC(=O)c1c[nH]c2ccccc12 (stereo partly drawn) [Example 2 fast, N-methyl-N-benzylamide of N^α -{[N(indol-3-yl-carbonyl)(R,S)-cis-2-amino]cyclohexanoyl}-L-phenylalanine and N-methyl-N-benzylamide of N^α -{[N(indol-3-yl-carbonyl)(S,R)-cis-2-amino]cyclohexanoyl}-L-phenylalanine]		100%

Continued, values first:

inhibition at 1 µM	% of binding inhibition at 1 μM (1 µM)	SMILES
98%		CN(Cc1ccccc1)C(=O)[C@@H](Cc1ccc2ccccc2c1)NC(=O)C1CCCCC1NC(=O)c1ccccc1 (stereo partly drawn) [Example 17 fast, N^α [N-(benzoyl)-(R,S)cis-2-aminocyclohexyl-carbonyl]-D-3-(2-naphthyl)alanyl-N-methyl-N-benzylamide and N^α [N-(benzoyl)-(S,R)cis-2-aminocyclohexyl-carbonyl]-D-3-(2-naphthyl)alanyl-N-methyl-N-benzylamide]
95%		CN(Cc1ccccc1)C(=O)[C@H](Cc1ccc2ccccc2c1)NC(=O)C1C2CCC(C2)C1NC(=O)c1c[nH]c2ccccc12 (stereo partly drawn) [Example 10 fast, N^α [N-(1H-indol-3-yl-carbonyl)-3S-endoaminobicyclo(2,2,1)heptyl-2R endocarbonyl]-L-3-(2-naphthyl)alanyl-N-methyl-N-benzylamide and N^α [N-(1H-indol-3-yl-carbonyl)-3R-endoaminobicyclo(2,2,1)heptyl-2S-endocarbonyl]-L-3-(2-naphthyl)alanyl-N-methyl-N-benzylamide]
100%		CN(Cc1ccccc1)C(=O)[C@H](Cc1ccc2ccccc2c1)NC(=O)C1CCCCC1NC(=O)c1c[nH]c2ccccc12 (stereo partly drawn) [Example 3 fast, N^α [N-(1H-indol-3-yl-carbonyl)-(R,S)cis-2-aminocyclohexyl-carbonyl]-L-3(2-naphthyl)alanyl-N-methyl-N-benzylamide and N^α [N-(1H-indol-3-yl-carbonyl)-(S,R)cis-2-aminocyclohexyl-carbonyl]-L-3(2-naphthyl)alanyl-N-methyl-N-benzylamide]

Reference: patent publication US5641802A, “Tachyquinine antagonists, their preparation and use in pharmaceutical formulations” (A. Menarini Industrie Farmaceutiche Reiunite S.r.l., priority 1992, dated 1997)
